Target: T1, intracellular domain of DDR1 (Homo sapiens, UniProt Q08345)
T1 construct: the intracellular domain of DDR1 (in a final concentration of 5 ng/μL) (Carna Biosciences, Inc.); purchased Carna Biosciences, Inc
Assay: Evaluation of DDR1 inhibition activity with HTRF KinEASE-TK kit
Type: biochemical
Conditions: DDR1 intracellular domain 5 ng/μL, ATP 25 μm/L, TK Substrate-biotin 1000 nmol/L, room temperature, one hour
Procedure: The DDR1 inhibition activity in the compounds of Examples 1 to 80 was evaluated with HTRF® KinEASE-TK kit (Cisbio Bioassays).
Each test substance was dissolved in dimethyl sulfoxide and then used for the evaluation as described below. Moreover, each of test substances and reagents was diluted in the kinase buffer (Cisbio Bioassays) prepared by adding thereto MgCl2, MnCl2, DTT, and the Supplemental Enzyme buffer (Cisbio Bioassays) to concentrations of 5 mmol/L, 0.5 mmol/L, 0.25 mmol/L, and 50 nmol/L, respectively, and then used. Each test substance (in DMSO in a final concentration of 1%), the intracellular domain of DDR1 (in a final concentration of 5 ng/μL) (Carna Biosciences, Inc.), the phosphate donor ATP (in final concentration of 25 μm/L) (Sigma), and the substrate TK Substrate-biotin (in a final concentration of 1000 nmol/L) (Cisbio Bioassays) were added to a 384-well black plate (Corning) and allowed to react at room temperature for one hour. After completion of the reaction, the TK Antibody-Cryptate (Cisbio Bioassays) and the Streptavidin-XL665 (Cisbio Bioassays) were added thereto and allowed to react at room temperature for one hour. In addition, the plate was provided with a well to which a test substance was not added, and with a well to which a test substance and the intracellular domain of DDR1 were […].
The fluorescence intensity in each well was measured using a multi-label counter (Envision, PerkinElmer; excitation wavelength: 320 nm, measurement wavelength: 665 nm and 620 nm) to calculate a ratio (the fluorescence intensity at 665 nm/the fluorescence intensity at 620 nm). The inhibition rate (%) of a test substance at each concentration was calculated based on the formula below: Inhibition rate (%)=([the ratio obtained from the well containing no test substance]−[the ratio from a well containing a test substance])/([the ratio obtained from the well containing no test substance]−[the ratio obtained from the well containing no intracellular domain of DDR1 and no test substance])×100.
The calculated inhibition rates were fitted to a sigmoidal dose-response curve by regression analysis using the Prism 5.04 (GraphPad Software, Inc.) to calculate the IC50 value of the test substance.

T1 sequence (Q08345 439-913 limits assumed): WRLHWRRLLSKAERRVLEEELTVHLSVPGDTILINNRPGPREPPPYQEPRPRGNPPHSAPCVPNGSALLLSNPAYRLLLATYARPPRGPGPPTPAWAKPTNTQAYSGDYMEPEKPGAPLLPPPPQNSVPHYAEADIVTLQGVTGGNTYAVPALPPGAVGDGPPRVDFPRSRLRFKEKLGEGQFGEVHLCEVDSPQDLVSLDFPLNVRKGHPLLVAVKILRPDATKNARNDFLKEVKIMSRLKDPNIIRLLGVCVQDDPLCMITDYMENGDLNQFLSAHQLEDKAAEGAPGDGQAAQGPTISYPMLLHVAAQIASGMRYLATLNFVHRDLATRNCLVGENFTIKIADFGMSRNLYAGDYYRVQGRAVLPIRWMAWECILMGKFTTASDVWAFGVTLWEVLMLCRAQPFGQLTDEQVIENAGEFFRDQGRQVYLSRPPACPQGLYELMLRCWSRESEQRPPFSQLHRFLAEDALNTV

Structure (SMILES)	IC50
COc1ccc(OC(F)(F)F)cc1NC(=O)N[C@H]1CC[C@H](OCc2cccnc2)CC1 [Example 68, 1-(2-methoxy-5-(trifluoromethoxy)phenyl)-3-(trans-4-(pyridin-3-ylmethoxy)cyclohexyl)urea]	0.0166 µM
CNc1cc(O[C@H]2CC[C@H](NC(=O)Nc3cc(OC(F)(F)F)cc(CO)c3OC)CC2)ncn1 [Example 70, 1-(3-(hydroxymethyl)-2-methoxy-5-(trifluoromethoxy)phenyl)-3-(trans-4-((6-(methylamino)pyrimidin-4-yl)oxy)cyclohexyl)urea]	0.0134 µM
COc1ccc(C(F)(F)F)cc1NC(=O)N[C@H]1CC[C@H](COCc2cccnc2)CC1 [Example 73, 1-(2-methoxy-5-(trifluoromethyl)phenyl)-3-(trans-4-((pyridin-3-ylmethoxy)methyl)cyclohexyl)urea]	0.0577 µM
COc1ccc(OC(F)(F)F)cc1NC(=O)N[C@H]1CC[C@H](COCc2ccncc2)CC1 [Example 74, 1-(2-methoxy-5-(trifluoromethoxy)phenyl)-3-(trans-4-((pyridin-4-ylmethoxy)methyl)cyclohexyl)urea]	0.0252 µM
COc1ccc(C(F)(F)F)cc1NC(=O)N[C@H]1CC[C@H](COCc2ccncc2)CC1 [Example 75, 1-(2-methoxy-5-(trifluoromethyl)phenyl)-3-(trans-4-((pyridin-4-ylmethoxy)methyl)cyclohexyl)urea]	0.02 µM
COc1c(CO)cc(OC(F)(F)F)cc1NC(=O)N[C@H]1CC[C@H](Oc2ccnc(-c3cccnc3)n2)CC1 [Example 79, 1-(3-(hydroxymethyl)-2-methoxy-5-(trifluoromethoxy)phenyl)-3-(trans-4-((2-(pyridin-3-yl)pyrimidin-4-yl)oxy)cyclohexyl)urea]	0.0228 µM

Second part, the compound after the results:

IC50	Structure (SMILES)
0.00969 µM	COc1c(CO)cc(OC(F)(F)F)cc1NC(=O)N[C@H]1CC[C@H](OCc2cccnc2)CC1 [Example 67, 1-(3-(hydroxymethyl)-2-methoxy-5-(trifluoromethoxy)phenyl)-3-(trans-4-(pyridin-3-ylmethoxy)cyclohexyl)urea]
0.0172 µM	COc1ccc(C(F)(F)F)cc1NC(=O)N[C@H]1CC[C@H](OCc2cccnc2)CC1 [Example 69, 1-(2-methoxy-5-(trifluoromethyl)phenyl)-3-(trans-4-(pyridin-3-ylmethoxy)cyclohexyl)urea]
0.0108 µM	CNc1cc(O[C@H]2CC[C@H](NC(=O)Nc3cc(C(F)(F)F)cc(CO)c3OC)CC2)ncn1 [Example 71, 1-(3-(hydroxymethyl)-2-methoxy-5-(trifluoromethyl)phenyl)-3-(trans-4-((6-(methylamino)pyrimidin-4-yl)oxy)cyclohexyl)urea]
0.0822 µM	COc1ccc(OC(F)(F)F)cc1NC(=O)N[C@H]1CC[C@H](COCc2cccnc2)CC1 [Example 72, 1-(2-methoxy-5-(trifluoromethoxy)phenyl)-3-(trans-4-((pyridin-3-ylmethoxy)methyl)cyclohexyl)urea]
0.0141 µM	O=C(Nc1cc(C(F)(F)F)ccc1OC1COC1)N[C@H]1CC[C@H](OCc2cccnc2)CC1 [Example 76, 1-(2-(oxetan-3-yloxy)-5-(trifluoromethyl)phenyl)-3-(trans-4-(pyridin-3-ylmethoxy)cyclohexyl)urea]
0.0801 µM	COc1ccc(OC(F)(F)F)cc1NC(=O)N[C@H]1CC[C@H](COc2cccc(C(N)=O)c2)CC1 [Example 78, 3-((trans-4-(3-(2-methoxy-5-(trifluoromethoxy)phenyl)ureido)cyclohexyl)methoxy)benzamide]
0.0249 µM	CNc1nccc(O[C@H]2CC[C@H](NC(=O)Nc3cc(OC(F)(F)F)cc(CO)c3OC)CC2)n1 [Example 80, 1-(3-(hydroxymethyl)-2-methoxy-5-(trifluoromethoxy)phenyl)-3-(trans-4-((2-(methylamino)pyrimidin-4-yl)oxy)cyclohexyl)urea]

From US10280145B2 (Toray Industries, Inc., priority 2015, dated 2019)
